Source: patent US7338958B2, “Sulfoximine-substituted pyrimidines as CDK-and/or VEGF inhibitors, their production and use as pharmaceutical agents” (Schering AG, priority 2003, dated 2008)
Where two headings read alike, the source gives them in different places.

Assays:
[1] = tested on: MCF7, hormone-independent human breast cancer cells; assay: Proliferation assay, MCF7; format: cell-based; settings: MCF7, 96 h, 4 days incubation, crystal violet
Description: (§1) Cultivated human tumor cells (MCF7, hormone-independent human breast cancer cells, related to ATCC HTB22; NCI-H460, human non-small-cell lung cancer cells, ATCC HTB-177, HCT 116, human colon cancer cells, ATCC CCL-247; DU 145, hormone-independent human prostate cancer cells, ATCC HTB-81; MaTu-MDR, hormone-independent, multiple pharmaceutical agent-resistant human breast cancer cells, EPO-GmbH, Berlin) were flattened out at a density of about 5000 cells/measuring point, depending on the growth rate of the respective cells, in a 96-well multititer plate in 200 μl of the corresponding growth medium. After 24 hours, the cells of one plate (zero-point plate) were colored with crystal violet (see below), while the medium of the other plates was replaced by fresh culture medium (200 μl), to which the test substances were added in various concentrations (0 μm, as well as in the range of 0.01-30 μm; the final concentration of the solvent dimethyl sulfoxide was 0.5%). The cells were incubated for 4 days in the presence of test substances. The cell proliferation was determined by coloring the cells with crystal violet: the cells were fixed by adding 20 μl/measuring point of an 11% glutaric aldehyde solution for 15 minutes at room temperature. After three washing cycles of the fixed cells with water, the plates were dried at room temperature. The cells were colored by adding 100 μl/measuring point of a 0.1% crystal violet solution (the pH was set at 3 by adding acetic acid). After three washing cycles of the colored cells with water, the plates were dried at room temperature. The dye was dissolved by adding 100 μl/measuring point of a 10% acetic acid solution. The extinction was determined by photometry at a wavelength of 595 nm. The change of cell growth, in percent, was calculated by normalization of the measured values to the extinction values of the zero-point plate (=0%) and the extinction of the untreated (0 μm) cells (=100%).

CDK2/CycE = target: T1, CDK2/CycE (Homo sapiens, UniProt P24941); assay: CDK2/CycE Kinase Assay; format: biochemical; settings: histone IIIS substrate, 33P-ATP, 15 minutes at 22° C.
T1 construct: GST; purchased ProQinase GmbH, Freiburg; host or cells: baculovirus-infected insect cells (Sf9)
Procedure: Recombinant CDK2- and CycE-GST-fusion proteins, purified from baculovirus-infected insect cells (Sf9), were purchased by ProQinase GmbH, Freiburg. Histone IIIs, which was used as a kinase substrate, was purchased by the Sigma Company.
CDK2/CycE (50 ng/measuring point) was incubated for 15 minutes at 22° C. in the presence of various concentrations of test substances (0 μm, as well as within the range of 0.01-100 μm) in assay buffer [50 mmol of tris/HCl, pH 8.0, 10 mmol of MgCl2, 0.1 mmol of Na ortho-vanadate, 1.0 mmol of dithiothreitol, 0.5 μm of adenosine triphosphate (ATP), 10 μg/measuring point of histone IIIS, 0.2 μCi/measuring point of ^33P-gamma ATP, 0.05% NP40, 12.5% dimethyl sulfoxide]. The reaction was stopped by adding EDTA solution (250 mmol, pH 8.0, 14 μl/measuring point).
(§2) From each reaction batch, 10 μl was applied to P30 filter strips (Wallac Company), and non-incorporated ^33P-ATP was removed by subjecting the filter strips to three washing cycles for 10 minutes each in 0.5% phosphoric acid. After the filter strips were dried for one hour at 70° C., the filter strips were covered with scintillator strips (MeltiLex™ A, Wallac Company) and baked for one hour at 90° C. The amount of incorporated ^33P (substrate phosphorylation) was determined by scintillation measurement in a gamma-radiation measuring device (Wallac).

CDK1/CycB = target: T2, CDK1/CycB (Homo sapiens, UniProt P06493); assay: CDK1/CycB Kinase Assay; format: biochemical; settings: histone IIIS substrate, 33P-ATP, 15 minutes at 22° C.
T2 construct: GST; purchased ProQinase GmbH, Freiburg; host or cells: baculovirus-infected insect cells (Sf9)
Procedure: Recombinant CDK1- and CycB-GST-fusion proteins, purified from baculovirus-infected insect cells (Sf9), were purchased from ProQinase GmbH, Freiburg. Histone IIIS, used as a kinase substrate, is available commercially from the Sigma Company.
The reaction was stopped by adding EDTA solution (250 mmol, pH 8.0, 14 μl/measuring point).
as §2, with “33P-ATP” for “^33P-ATP”, “33P” for “^33P”

[2] = target: T3, VEGF receptor tyrosine kinase-2 (Homo sapiens, UniProt P35968); assay: VEGF Receptor-2 Kinase Assay; format: biochemical; settings: 33P-ATP, 10 minutes at 22° C.
T3 construct: GST; made in house; host or cells: baculovirus-infected insect cells (Sf9)
Procedure: VEGF Receptor-2 Kinase Assay
Recombinant VEGF receptor tyrosine kinase-2 was purified as a GST fusion protein from baculovirus-infected insect cells (Sf9). Poly-(Glu4Tyr), which was used as a kinase substrate, was purchased by the Sigma Company.
VEGF receptor tyrosine kinase (90 ng/measuring point) was incubated for 10 minutes at 22° C. in the presence of various concentrations of test substances (0 μm, as well as within the range of 0.001-30 μm) in 30 μl of assay buffer [40 mmol of Tris/HCl, […], 10 mmol of MgCl2, 1 mmol of MnCl2, 3 μmol of Na ortho-vanadate, 1.0 mmol of dithiothreitol, 8 μmol of adenosine trisphosphate (ATP), 27 μg/measuring point of poly-(Glu4Tyr), 0.2 μCi/measuring point of 33P-gamma ATP, 1% dimethyl sulfoxide]. The reaction was stopped by adding EDTA solution (250 mmol, pH 7.0, 10 μl/measuring point).
as §2, with “33P-ATP” for “^33P-ATP”, “33P” for “^33P”

[3] = tested on: NCI-H460, human non-small-cell lung cancer cells; assay: Proliferation assay, H460; format: cell-based; settings: NCI-H460, 96 h, 4 days incubation, crystal violet
Description: as §1

[4] = tested on: DU 145, hormone-independent human prostate cancer cells; assay: Proliferation assay, DU145; format: cell-based; settings: DU-145, 96 h, 4 days incubation, crystal violet
Description: as §1

MaTu-ADR = assay: Proliferation assay, MaTu-ADR; format: cell-based; settings: Homo sapiens, 96 h, MaTu-ADR cells, 4 days incubation, crystal violet
Description: as §1

[5] = poly-(Glu4Tyr) substrate, read-out: VEGF-R2 IC50

T3 sequence (P35968 20-1356): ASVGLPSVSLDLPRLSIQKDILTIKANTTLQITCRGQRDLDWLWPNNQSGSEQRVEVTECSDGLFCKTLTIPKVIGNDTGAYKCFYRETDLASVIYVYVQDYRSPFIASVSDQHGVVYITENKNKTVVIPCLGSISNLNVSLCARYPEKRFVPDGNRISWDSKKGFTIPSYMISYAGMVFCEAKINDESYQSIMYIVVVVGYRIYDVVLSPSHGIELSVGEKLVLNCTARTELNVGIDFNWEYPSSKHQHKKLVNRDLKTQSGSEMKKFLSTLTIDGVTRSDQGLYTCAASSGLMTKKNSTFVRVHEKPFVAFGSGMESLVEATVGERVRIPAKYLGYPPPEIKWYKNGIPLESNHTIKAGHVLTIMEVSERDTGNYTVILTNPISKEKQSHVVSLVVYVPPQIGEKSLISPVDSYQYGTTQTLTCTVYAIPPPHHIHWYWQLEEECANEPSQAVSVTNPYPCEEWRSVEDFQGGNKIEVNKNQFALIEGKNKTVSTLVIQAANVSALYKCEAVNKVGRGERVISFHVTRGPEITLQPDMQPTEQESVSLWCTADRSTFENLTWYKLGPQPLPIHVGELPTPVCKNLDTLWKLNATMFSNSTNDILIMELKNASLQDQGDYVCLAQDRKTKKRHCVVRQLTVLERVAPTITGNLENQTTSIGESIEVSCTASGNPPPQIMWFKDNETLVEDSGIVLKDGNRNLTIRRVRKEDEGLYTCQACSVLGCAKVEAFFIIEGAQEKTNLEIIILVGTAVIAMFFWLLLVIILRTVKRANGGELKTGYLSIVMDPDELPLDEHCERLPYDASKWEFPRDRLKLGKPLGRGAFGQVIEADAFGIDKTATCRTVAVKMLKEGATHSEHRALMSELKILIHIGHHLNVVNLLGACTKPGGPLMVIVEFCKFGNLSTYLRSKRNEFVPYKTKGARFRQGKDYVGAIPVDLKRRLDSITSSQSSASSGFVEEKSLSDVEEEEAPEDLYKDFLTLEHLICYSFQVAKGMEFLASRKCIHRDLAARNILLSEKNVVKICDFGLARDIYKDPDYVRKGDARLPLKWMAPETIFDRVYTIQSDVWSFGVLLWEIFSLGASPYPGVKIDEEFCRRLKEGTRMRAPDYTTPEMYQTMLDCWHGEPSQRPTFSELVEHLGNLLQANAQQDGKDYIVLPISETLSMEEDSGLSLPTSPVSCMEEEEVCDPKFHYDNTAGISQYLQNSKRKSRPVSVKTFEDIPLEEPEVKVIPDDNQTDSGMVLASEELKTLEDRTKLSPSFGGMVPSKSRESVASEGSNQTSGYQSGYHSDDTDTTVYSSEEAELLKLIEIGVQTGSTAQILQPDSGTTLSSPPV
T2 sequence (P06493 whole entry): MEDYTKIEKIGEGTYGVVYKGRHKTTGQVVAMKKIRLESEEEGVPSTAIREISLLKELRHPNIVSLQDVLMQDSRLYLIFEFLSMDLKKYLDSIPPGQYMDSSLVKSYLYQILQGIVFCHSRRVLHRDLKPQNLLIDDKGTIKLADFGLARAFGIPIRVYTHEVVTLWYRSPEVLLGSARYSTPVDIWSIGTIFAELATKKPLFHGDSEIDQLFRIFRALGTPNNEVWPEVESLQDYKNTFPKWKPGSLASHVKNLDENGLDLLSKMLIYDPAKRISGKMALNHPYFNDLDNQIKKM
T2 sequence (P14635 whole entry partner): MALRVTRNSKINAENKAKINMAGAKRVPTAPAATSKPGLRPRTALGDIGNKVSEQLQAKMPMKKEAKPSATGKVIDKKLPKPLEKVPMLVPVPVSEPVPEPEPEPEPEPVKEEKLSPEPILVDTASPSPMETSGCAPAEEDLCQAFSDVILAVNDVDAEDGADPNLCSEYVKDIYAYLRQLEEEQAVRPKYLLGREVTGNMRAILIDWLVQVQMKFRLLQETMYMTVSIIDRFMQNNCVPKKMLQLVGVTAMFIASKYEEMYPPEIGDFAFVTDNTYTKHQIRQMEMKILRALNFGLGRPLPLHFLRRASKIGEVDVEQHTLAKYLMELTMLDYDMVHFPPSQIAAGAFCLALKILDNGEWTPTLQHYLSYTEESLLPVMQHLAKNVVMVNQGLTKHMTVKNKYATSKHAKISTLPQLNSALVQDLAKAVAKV

IC50 [1] [nM] | IC50 (CDK2/CycE) [nM] | IC50 (CDK1/CycB) [nM] | IC50 [3] [nM] | IC50 [4] [nM] | IC50 [2, 5] [nM] | Compound | IC50 ([2]; VEGF-R2 IC50, poly-(Glu4Tyr) substrate) [nM] | IC50 (MaTu-ADR) [nM]
< 100 |  | 5 | 70 | 130 | 150 | COc1cc(Nc2ncc(Br)c(O[C@H](C)[C@@H](C)O)n2)ccc1S(C)(=N)=O (mixture of isomers) [Example 1.24, (RS)-S-[4-({5-bromo-4-[(1R,2R)-2-hydroxy-1-methylpropoxy]pyrimidin-2-yl}amino)-2-methoxyphenyl]-S-methyl sulfoximide] |  | 80
 | 4 | 7 |  |  |  | CN=S(C)(=O)c1ccc(Nc2ncc(Br)c(N[C@H](C)[C@@H](C)O)n2)cc1 (mixture of isomers) [Example 1.29, (RS)-S-[4-({5-bromo-4-[(1R,2R)-(2-hydroxy-1-methylpropyl)amino]pyrimidin-2-yl}amino)phenyl]-N,S-dimethyl-sulfoximide] |  | 
 | 6 | 15 |  |  |  | CN=S(C)(=O)c1ccc(Nc2ncc(Br)c(N[C@H](C)[C@@H](C)O)n2)cc1 (mixture of isomers) [Example 1.30, (RS)-S-[4-({5-bromo-4-[(1R,2R)-(2-hydroxy-1-methylpropyl)amino]pyrimidin-2-yl}amino)phenyl]-N,S-dimethyl-sulfoximide] |  | 
800 | 28 |  |  |  | 530 | CCOC(=O)N=S(C)(=O)c1ccc(Nc2ncc(Br)c(N[C@H](COC)[C@@H](C)O)n2)cc1 (mixture of isomers) [Example 1.34, (RS)-S-{4-[(5-bromo-4-{[(1R,2R)-2-hydroxy-1-(methoxymethyl)propyl]amino}pyrimidin-2-yl)amino]phenyl}-N-(ethoxycarbonyl)-S-methyl sulfoximide] |  | 
80 |  |  | 70 | 90 |  | C[C@@H](Nc1nc(Nc2ccc(S(C)(=N)=O)cc2)ncc1Br)C(C)(C)O (mixture of isomers) [Example 1.41, (RS)-S-[4-({5-bromo-4-[(R)-(2-hydroxy-1,2-dimethylpropyl)amino]pyrimidin-2-yl}amino)phenyl]-S-methyl sulfoximide] |  | 70
 | 4 | 11 |  |  |  | COC[C@@H](Nc1nc(Nc2ccc(S(C)(=N)=O)cc2)ncc1Br)[C@@H](C)O (mixture of isomers) [Example 1.46, (RS)-S-{4-[(5-bromo-4-{[(1R,2R)-2-hydroxy-1-(methoxymethyl)-propyl]amino}pyrimidin-2-yl)amino]phenyl}-S-methyl sulfoximide] |  | 
 |  |  | 300 | 400 | 270 | CCS(=N)(=O)c1ccc(Nc2ncc(Br)c(N[C@H](COC)[C@@H](C)O)n2)cc1 (mixture of isomers) [Example 1.48, (RS)-S-{4-[(5-bromo-4-{[(1R,2R)-2-hydroxy-1-(methoxymethyl)-propyl]amino}pyrimidin-2-yl)amino]phenyl}-S-ethyl sulfoximide] |  | 
 |  | 5 | 50 | 50 | 26 | CCS(=N)(=O)c1ccc(Nc2ncc(Br)c(N[C@H](C)[C@@H](C)O)n2)cc1 (mixture of isomers) [Example 1.51, (RS)-S-[4-({5-bromo-4-[(1R,2R)-(2-hydroxy-1-methylpropyl)amino]pyrimidin-2-yl}amino)phenyl]-S-ethyl sulfoximide] |  | 60
900 | 63 | 200 |  |  | 89 | CCOc1nc(Nc2ccc(S(=N)(=O)CC)cc2)ncc1Br (racemic) [Example 1.63, (RS)-S-{4-[(5-bromo-4-ethoxypyrimidin-2-yl)amino]phenyl}-S-ethyl sulfoximide] |  | 
300 |  | 160 | 400 | 190 |  | CS(=N)(=O)c1ccc(Nc2ncc(Br)c(Nc3ccccc3)n2)cc1 (racemic) [Example 2.3, (RS)-S-(4-{[5-bromo-4-(phenylamino)pyrimidin-2-yl]amino}phenyl)-S-methyl sulfoximide] |  | 120
1000 | 8 | 55 |  |  |  | CC(C)(O)CSc1nc(Nc2ccc(S(C)(=N)=O)cc2)ncc1Br (racemic) [Example 3.9, (RS)-S-[4-({5-bromo-4-[(2-hydroxy-2-methyl-propyl)sulfanyl]pyrimidin-2-yl}amino)phenyl]-S-methyl sulfoximide] |  | 
 |  |  | 30 | 40 |  | C[C@@H](O)[C@@H](C)Nc1nc(Nc2ccc(S(C)(=N)=O)cc2)ncc1Br (single isomer, unassigned) [Example 1.2] |  | 40
90 |  | 7 | 100 |  | 69 | C[C@@H](Nc1nc(Nc2ccc(S(=N)(=O)CCO)cc2)ncc1Br)C(C)(C)O (single isomer, unassigned) [Example 1.14] |  | 
 |  |  |  | 70 |  | COc1cc(Nc2ncc(Br)c(N[C@H](C)[C@@H](C)O)n2)ccc1S(C)(=N)=O (single isomer, unassigned) [Example 1.26] |  | 

Compound | IC50 [1] [nM] | IC50 (CDK2/CycE) [nM] | IC50 (CDK1/CycB) [nM] | IC50 [3] [nM] | IC50 [4] [nM] | IC50 [2, 5] [nM] | IC50 ([2]; VEGF-R2 IC50, poly-(Glu4Tyr) substrate) [nM] | IC50 (MaTu-ADR) [nM]
C[C@H](CO)Nc1nc(Nc2ccc(S(=O)(CC3CC3)=NS(=O)(=O)CC[Si](C)(C)C)cc2)ncc1Br (mixture of isomers) [Example 1.7, (RS)-S-[4-({5-bromo-4-[(R)-(2-hydroxy-1-methylethyl)amino]pyrimidin-2-yl}amino)phenyl]-S-(cyclopropylmethyl)-N-[2-(trimethylsilyl)ethylsulfonyl]sulfoximide] | 1100 | > 1000 | > 1000 |  |  |  | 240 | 
C[C@H](CO)Nc1nc(Nc2ccc(S(C)(=O)=NS(=O)(=O)CC[Si](C)(C)C)cc2)ncc1Br (mixture of isomers) [Example 2.1, (RS)-S-[4-({5-bromo-4-[(R)-(2-hydroxy-1-methylethyl)amino]pyrimidin-2-yl}amino)phenyl]-S-methyl-N-[2-(trimethylsilyl)ethylsulfonyl]sulfoximide] | 900 | 390 |  |  |  | 74 |  | 
